According to the supplement of paper PMC6045584:

compound: COc1cc(CCc2cc(NC(=O)c3ccc(N4CC(C)NC(C)C4)cc3)n[nH]2)cc(OC)c1 [AZD4547]; experiment: area under dose-response curve of surviving fraction (unscaled, Aref=0) (surviving fraction x log10(nM)); higher = more resistant; conditions: exposure time: 5 days; dose range 0.5-1000 nM
Summary of the method: (§1)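 Inhibitor was applied to tumour cell lines at eight concentrations (0.5 to 1000 nM) for five days in 384-well plates. Luminescence from CellTiter-Glo, scaled to DMSO-only wells, gave surviving fractions in three screens per line, and these were fitted by 3-parameter logistic regression with the drc R package. The area under the curve is an unscaled activity area. Aref was 0, and dose was on a log10 scale.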

Test System | area under dose-response curve
JIMT1 BREAST | 3.41
KPD BONE | 3.14
MCF7 BREAST | 3.09
MDAMB134 BREAST | 3.23
MDAMB231 BREAST | 3.37
MDAMB361 BREAST | 3.18
MDAMB436 BREAST | 3.36
MDAMB468 BREAST | 3.6
MFM223 BREAST | 1.63
MHM BONE | 2.76
NY BONE | 2.25
OS25HAL BONE | 3.36
PCI30 HEADNECK | 3.56
SG43 HEADNECK | 2.62
SNU475 LIVER | 3.14
SYO1 SYNOVIAL | 2.4
T47D BREAST | 3.76
U2OS BONE | 2.79

compound: COc1cc([C@@H]2c3cc4c(cc3[C@@H](O[C@@H]3O[C@@H]5CO[C@@H](C)O[C@H]5[C@H](O)[C@H]3O)[C@H]3COC(=O)[C@H]23)OCO4)cc(OC)c1O [ETOPOSIDE]; experiment: as above; conditions: exposure time: 5 days; dose range 0.5-1000 nM
Summary of the method: as §1

Test System | area under dose-response curve
22RV1 PROSTATE | 2.73
CADOES1 SOFT TISSUE | 3
CAL51 BREAST | 2.79
CAL120 BREAST | 2.9
CASKI CERVIX | 2.72
CHLA90 AUTONOMIC GANGLIA | 2.94
COLO320DM LARGE INTESTINE | 3.54
DU4475 BREAST | 1.65
H23 LUNG | 3.08
HCC70 BREAST | 3.16
HCC78 LUNG | 2.45
HCC1954 BREAST | 2.69
HCT15 LARGE INTESTINE | 3.09
HOS BONE | 2.45
HSSYII SYNOVIAL | 2.41
JIMT1 BREAST | 3.23
KPD BONE | 2.77

Test System | area under dose-response curve
MCF7 BREAST | 2.83
MDAMB134 BREAST | 3.5
MDAMB231 BREAST | 3.08
MDAMB361 BREAST | 3.08
MDAMB436 BREAST | 2.79
MDAMB468 BREAST | 3.72
MFM223 BREAST | 3.2
MHM BONE | 3.23
NY BONE | 3.17
OS25HAL BONE | 3.02
PCI30 HEADNECK | 3.08
SG43 HEADNECK | 2.8
SNU475 LIVER | 3.16
SYO1 SYNOVIAL | 2.14
T47D BREAST | 2.95
U2OS BONE | 2.88

compound: Cc1nc(Nc2n[nH]c3c2CN(C(=O)N[C@H](CN(C)C)c2ccccc2)C3(C)C)c2sccc2n1; experiment: as above; conditions: exposure time: 5 days; dose range 0.5-1000 nM
Summary of the method: as §1

Test System | area under dose-response curve
22RV1 PROSTATE | 1.33
CADOES1 SOFT TISSUE | 2.56
CAL51 BREAST | 0.818
CAL120 BREAST | 1.08
CASKI CERVIX | 0.674
CHLA90 AUTONOMIC GANGLIA | 1.57
COLO320DM LARGE INTESTINE | 2.68
DU4475 BREAST | 0.457
H23 LUNG | 1.47
HCC70 BREAST | 0.85
HCC78 LUNG | 1.31
HCC1954 BREAST | 1.63
HCT15 LARGE INTESTINE | 2.81
HOS BONE | 1.45
HSSYII SYNOVIAL | 1.02
JIMT1 BREAST | 2.28

Test System | area under dose-response curve
KPD BONE | 1.06
MCF7 BREAST | 2.09
MDAMB134 BREAST | 3.15
MDAMB231 BREAST | 1.79
MDAMB361 BREAST | 2.83
MDAMB436 BREAST | 2.55
MDAMB468 BREAST | 0.925
MFM223 BREAST | 1.83
MHM BONE | 2.58
NY BONE | 1.56
OS25HAL BONE | 1.54
PCI30 HEADNECK | 1.83
SNU475 LIVER | 1.98
SYO1 SYNOVIAL | 0.731
T47D BREAST | 2.87
U2OS BONE | 1.35

compound: NC1(c2ccc(-c3nc4ccn5c(=O)[nH]nc5c4cc3-c3ccccc3)cc2)CCC1 [MK2206]; experiment: as above; conditions: exposure time: 5 days; dose range 0.5-1000 nM
Summary of the method: as §1

Test System | area under dose-response curve
22RV1 PROSTATE | 2.65
CADOES1 SOFT TISSUE | 2.82
CAL51 BREAST | 3.16
CAL120 BREAST | 3.14
CASKI CERVIX | 2.5
CHLA90 AUTONOMIC GANGLIA | 3.16
COLO320DM LARGE INTESTINE | 3.11
DU4475 BREAST | 2.76
H23 LUNG | 3.04
HCC70 BREAST | 2.8
HCC78 LUNG | 2.5
HCC1954 BREAST | 3.11
HCT15 LARGE INTESTINE | 3.46
HOS BONE | 3.15
HSSYII SYNOVIAL | 3.02
JIMT1 BREAST | 3.01
KPD BONE | 2.3
MCF7 BREAST | 2.79
MDAMB134 BREAST | 2.78
MDAMB231 BREAST | 3.09
MDAMB361 BREAST | 2.39
MDAMB436 BREAST | 3.01
